Patent US4599424A, “5-substituted thiadiazole ureas and their use as herbicides” (priority 1979, dated 1986)

Test system: a variety of crops and weed species
Assay: Pre- and post-emergence herbicide tests, overall assessment of TABLES III-VI
Assay type: in vivo
Conditions: from data of TABLES III-VI
Method: All crop and weed species were planted individually in 3" plastic pots containing potting soil. Four seeds each of corn, cotton, and snapbeans were seeded to a depth equal to the diameter of the seed. All other species were surface seeded and sprinkled with screened soil in an amount sufficient to cover the seed. Immediately after planting, all pots were watered by sub-irrigation in greenhouse trays. Pots for the pre-emergence phase were seeded one day before treatment.
Planting dates for the post-emergence phase were varied so that all seedlings would reach the desired stage of development simultaneously. The proper stage of seedling development for treatment in the post-emergence phase is as follows:
Compounds were tested at rates of application equivalent to 8 lbs. of actual compound per acre in a spray volume of 38 gallons per acre. Spray hood constants required to deliver the above volume are as follows:
Two weeks after treatment, pre- and post-emergence injury or control was visually rated, and the results were as shown in the following tables. Pre-emergence data are provided in TABLE III and post-emergence data are provided in TABLE IV, for compounds having the formula illustrated in TABLE I. Correspondingly, pre-emergence and post-emergence data, respectively, are set forth in TABLES V AND VI, for compounds having the formula illustrated in TABLE II.
Typical of such compounds are: 1, 2, 5, 26, 36, and 37.

Row | SMILES | herbicidal effectiveness and selectivity (in words)
1 | CNC(=O)Nc1nnc(CC(C)C)s1 [Example 21] | more selective
2 | CNC(=O)Nc1nnc(COC)s1 [Example 25] | more selective
3 | CNC(=O)Nc1nnc(SC)s1 [Example 26] | extremely effective
4 | CNC(=O)Nc1nncs1 [Example 35] | more selective
5 | CNC(=O)N(C)c1nnc(C(F)(F)F)s1 [Example 36] | extremely effective
